This series concerns rodent carcinogenicity bioassays, tumor incidence. Kind of series: CCRIS carcinogenicity studies. To be noted: Species: RAT, Route: ORAL. Put shortly: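 NCI-built, expert-reviewed records of carcinogenicity and related test outcomes (mutagenicity, tumor promotion/inhibition) compiled from published and report sources, historical span 1985-2011, not updated.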

The structures appear in SMILES notation. The source made the active and inactive calls. How the calls were made is not given here.

As to `COC(=O)C1=C(C)NC(C)=C(C(=O)OCC(C)(C)CN(C)Cc2ccccc2)C1c1cc([N+](=O)[O-])ccc1F` (stereo not drawn), the carcinogen call was “inactive; negative” (Strain/Sex: F344/FEMALE, Dose: 0, 0.67, 2, 6 MG/KG/D IN DIET FOR 104 WK (STUDY DURATION: 104 WK), Dose: 0, 0.67, 2, 6 MG/KG/D IN DIET FOR 104 WK (STUDY DURATION: 104 WK)) and “inactive; negative” (Strain/Sex: F344/MALE, Dose: 0, 0.67, 2, 6 MG/KG/D IN DIET FOR 104 WK (STUDY DURATION: 104 WK), Dose: 0, 0.67, 2, 6 MG/KG/D IN DIET FOR 104 WK (STUDY DURATION: 104 WK)).
In the case of `O=C1O[C@@H](CN2CCOCC2)CN1N=Cc1ccc([N+](=O)[O-])o1`, the carcinogen call (Tumor Site: Type of Lesion: LYMPHATIC SYSTEM: LYMPHOBLASTIC LYMPHOMA, MAMMARY GLAND) is “active; positive”.

These data come from PubChem BioAssay AID1259411 (Chemical Carcinogenesis Research Information System (CCRIS), 2018).
